Assay results from PMC3131678 (Interdisciplinary Toxicology, 2011).
Where two headings read alike, the source gives them in different places.

What was measured:
CYP1A1 [1] = experiment: Inhibition of 7-ethoxyresorufin O-deethylase (EROD) activity in porcine hepatic microsomes
Protocol: (§1) All procedures were done on ice.
(§2) All steroids were dissolved in methanol. […] Kinetic studies were performed under linear conditions.
(§3) The activities were measured in pooled microsomes, thus taking into consideration between-individual variations in enzyme activities and potential response to the presence of steroids.

CYP1A2 [2] = biological target: T1, CYP1A2 (Sus scrofa, UniProt F1SJ26); experiment: Inhibition of 7-methoxyresorufin O-demethylase (MROD) activity in porcine hepatic microsomes
T1 sequence (F1SJ26 1-516): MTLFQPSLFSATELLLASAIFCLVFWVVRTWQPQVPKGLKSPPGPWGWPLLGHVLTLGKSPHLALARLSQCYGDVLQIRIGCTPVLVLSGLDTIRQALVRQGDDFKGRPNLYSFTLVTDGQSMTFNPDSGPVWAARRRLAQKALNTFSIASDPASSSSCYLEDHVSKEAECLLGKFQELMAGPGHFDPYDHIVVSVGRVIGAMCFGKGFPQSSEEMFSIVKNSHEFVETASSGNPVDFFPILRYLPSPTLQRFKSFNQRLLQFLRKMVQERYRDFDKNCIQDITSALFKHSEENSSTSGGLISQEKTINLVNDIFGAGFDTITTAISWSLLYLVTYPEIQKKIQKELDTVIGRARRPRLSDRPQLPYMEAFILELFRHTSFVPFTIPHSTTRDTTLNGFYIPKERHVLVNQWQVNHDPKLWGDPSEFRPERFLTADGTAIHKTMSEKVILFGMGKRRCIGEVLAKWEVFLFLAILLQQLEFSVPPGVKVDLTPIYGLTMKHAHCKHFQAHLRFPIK
Protocol: as §1, §2, §3

CYP2E1 [3] = biological target: T2, CYP2E1 (Sus scrofa, UniProt P79383); experiment: Inhibition of p-nitrophenol hydroxylase (PNPH) activity in porcine hepatic microsomes
T2 sequence (P79383 whole entry): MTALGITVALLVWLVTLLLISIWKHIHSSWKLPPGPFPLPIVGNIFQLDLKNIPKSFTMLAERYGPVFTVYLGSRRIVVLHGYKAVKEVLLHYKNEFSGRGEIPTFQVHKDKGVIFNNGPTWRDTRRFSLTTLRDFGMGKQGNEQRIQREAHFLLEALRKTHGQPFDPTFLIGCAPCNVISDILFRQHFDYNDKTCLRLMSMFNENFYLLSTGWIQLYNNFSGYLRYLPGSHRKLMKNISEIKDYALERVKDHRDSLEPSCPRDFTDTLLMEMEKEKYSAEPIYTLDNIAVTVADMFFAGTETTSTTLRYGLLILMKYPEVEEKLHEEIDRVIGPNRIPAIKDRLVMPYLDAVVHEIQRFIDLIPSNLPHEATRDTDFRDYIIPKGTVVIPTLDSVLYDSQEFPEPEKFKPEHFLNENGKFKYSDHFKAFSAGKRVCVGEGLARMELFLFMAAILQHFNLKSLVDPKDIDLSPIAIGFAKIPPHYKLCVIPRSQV
Protocol: as §1, §2, §3

CYP1A2 [4] = biological target: T1, CYP1A2
Protocol: as §1, §2

CYP1A1 [5] = experiment: Enzyme kinetic analysis of EROD (resorufin formation from 7-ethoxyresorufin) in porcine hepatic microsomes; format: in vitro ADME; settings: CI 95% confidence interval
Protocol: as §1, §2
V=(Vmax1*S)/(Km1+S)+(V max2*S)/(Km2+S),
where Km1 and Km2 are Michaelis constants for the high- and low-affinity components, respectively, and Vmax1 and Vmax2 are the maximum reaction velocities for the high- and low-affinity components, respectively.

CYP1A1 [6] = tested on: CYP1A1; design: method as in Zamaratskaia et al., [2009]; settings: 1.8 to 72 pmol/ml; microsomes from entire and castrated male pigs; ref Zamaratskaia et al., [2009]; cited from earlier work
CYP2E1 [7] = biological target: T2, CYP2E1; settings: cited from earlier work
[8] = 100 µM steroid, pooled microsomes from three entire male pigs, altered = differs from control by at least 30%
[9] = lower concentrations (0.02 and 1.0 µM), pooled microsomes from entire male pigs
[10] = all concentrations tested (up to 100.0 µM), microsomes from mature male pigs
[11] = steroid 0.55, 1.0 and 100.0 µM, pooled microsomes from entire male pigs

| Compound | Inhibition of EROD activity (CYP1A1 [1]; [8]) | Inhibition of EROD activity (CYP1A1 [1]; [9]) | Inhibition of MROD activity (CYP1A2 [2]; [8]) | Inhibition of MROD activity (CYP1A2 [2]; [9]) | Inhibition of PNPH activity (CYP2E1 [3]; [10]) | Inhibition of EROD activity (CYP1A1 [1]; [11]) | also measured |
| --- | --- | --- | --- | --- | --- | --- | --- |
| C[C@]12CC[C@@H]3c4ccc(O)cc4CC[C@H]3[C@@H]1CC[C@H]2O [17α-estradiol] | inhibited | no inhibitory effect | inhibited | no inhibitory effect | inhibited only by 100 µM of 17β-estradiol |  |  |
| C[C@]12CC[C@H](O)C[C@@H]1CC[C@@H]1[C@@H]2CC[C@]2(C)C=CC[C@@H]12 [3β-androstenol] |  |  |  |  | inhibited only by 100 µM of 17β-estradiol | only 17β-estradiol and 17α-estradiol inhibited | Inhibition of MROD activity (CYP1A2 [2]; [11]): only 17β-estradiol and 17α-estradiol inhibited |
| COc1ccc2nc3ccc(=O)cc-3oc2c1 [7-methoxy-resorufin, 7-methoxyresorufin] |  |  |  |  |  |  | Km (CYP1A2 [4]): 0.13 µM |
| C[C@]12CCC(=O)C[C@@H]1CC[C@@H]1[C@@H]2CC[C@]2(C)[C@@H](O)CC[C@@H]12 [DHT, dihydrotestosterone] |  |  |  |  | inhibited only by 100 µM of 17β-estradiol | only 17β-estradiol and 17α-estradiol inhibited | Magnitude of MROD inhibition (CYP1A2 [2]; steroid 0.55, 1.0 and 100.0 µM, relative to control incubations): ≤ 30% |
| CCOc1ccc2nc3ccc(=O)cc-3oc2c1 [7-ethoxyresorufin] |  |  |  |  |  |  | Km (CYP1A1 [5]; high affinity component): 0.01 µM; Km (CYP1A1 [5]; low affinity component): 1.7 µM; Vmax, pmol/min/mg (CI) (CYP1A1 [5]; low affinity component): 15.2 (9.64–20.71) pmol/min/mg |
| C[C@]12CC[C@@H]3c4ccc(O)cc4CC[C@H]3[C@@H]1CC[C@@H]2O [17β-estradiol] | inhibited | no inhibitory effect | inhibited | no inhibitory effect |  |  | Inhibition of PNPH activity (CYP2E1 [3]; 100 µM steroid, pooled microsomes from three mature entire male pigs): Inhibition of PNPH activity was observed; Inhibition of PNPH activity (CYP2E1 [3]; lower concentrations (0.02 and 1.0 µM), microsomes from mature male pigs): observed only in the presence of high concentrations; Effect on EROD activity (CYP1A1 [6]): did not alter; Type of inhibition of PNPH (CYP2E1 [7]; microsomes from prepubertal male pigs, ref Zamaratskaia et al. ([2007])): mixed inhibitor; Inhibition of PNPH activity (CYP2E1 [7]; physiological concentrations, ref Rasmussen et al. (2010a)): inhibit |
